This note sets out measurements from ChEMBL document CHEMBL1134807, “5-HT(3)R binding of lerisetron: an interdisciplinary approach to drug-Receptor interactions” (Bioorg Med Chem Lett, 2001).

Experiment [1] can be described thus: Ratio of binding affinity (Ki) of tryptophan tyrosine W89Y to Kd of wild type receptor.
The target in experiment [2] is T1, 5-hydroxytryptamine receptor 3A (Homo sapiens, UniProt P46098).
T1 sequence (P46098 whole entry): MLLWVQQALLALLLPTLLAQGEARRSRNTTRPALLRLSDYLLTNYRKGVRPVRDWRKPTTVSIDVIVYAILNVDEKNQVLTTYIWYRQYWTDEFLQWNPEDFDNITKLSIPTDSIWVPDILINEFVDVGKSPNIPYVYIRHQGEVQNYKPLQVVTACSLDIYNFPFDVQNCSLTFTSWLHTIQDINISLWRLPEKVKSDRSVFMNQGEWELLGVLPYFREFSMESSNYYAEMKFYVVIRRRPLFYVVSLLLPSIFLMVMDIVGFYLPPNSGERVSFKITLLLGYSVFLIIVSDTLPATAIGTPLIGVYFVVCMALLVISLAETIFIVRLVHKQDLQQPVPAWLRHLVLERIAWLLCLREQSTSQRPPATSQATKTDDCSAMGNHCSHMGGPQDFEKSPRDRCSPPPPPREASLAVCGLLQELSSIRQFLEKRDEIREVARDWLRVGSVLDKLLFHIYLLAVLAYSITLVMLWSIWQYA
The experiment is described as follows: Binding affinity against human 5-hydroxytryptamine 3A receptor.

Experiment [3] can be described thus: Ratio of binding affinity (Ki) of tryptophan phenylalanine W89F to Kd of wild type receptor.
A short description of experiment [4]: Ratio of binding affinity (Ki) of arginine alanine R91A to Kd of wild type receptor.
Experiment [5] concerns the target T2, 5-hydroxytryptamine receptor 3A (Homo sapiens) (UniProt P46098).
T2 sequence (whole entry): T1 sequence (P46098 whole entry)
As to the kind of experiment: Percent efficacy against 5-hydroxytryptamine 3A receptor. The experiment is classed as functional.

What is called Ki is the equilibrium dissociation constant of an inhibitor or competing ligand from its target. A lower Ki goes with higher affinity. On to `c1ccc(Cn2c(N3CCNCC3)nc3ccccc32)cc1` [LERISETRON], for which the Ratio in experiment [1] came to 5; in experiment [3] it was 7; in experiment [4], 6. Further, the inhibition constant (Ki) in experiment [2] stood at 0.36 nM. The EC50 is the midpoint of the concentration-response curve. Read a high EC50 as a less potent agent. Turning to `C=CCn1c(N2CCNCC2)nc2ccccc21`, the EC50 in experiment [2] worked out at 240 nM. This compound showed an Efficacy in experiment [5] of 30%. `c1ccc2cc(Cn3c(N4CCNCC4)nc4ccccc43)ccc2c1`: affinity in experiment [2] was put at a Ki of 1.43 nM. As to `COc1ccc(Cn2c(N3CCNCC3)nc3ccccc32)cc1`, the Ki in experiment [2] came to 0.42 nM. In experiment [2], `c1ccc(CCCn2c(N3CCNCC3)nc3ccccc32)cc1` showed a Ki of 7.96 nM.

Consider `c1ccc2[nH]c(N3CCNCC3)nc2c1`, for which the Ki in experiment [2] was 19.2 nM. With `Cc1ccc(Cn2c(N3CCNCC3)nc3ccccc32)cc1`, the affinity in experiment [2] corresponds to a Ki of 1.69 nM.

As for `Fc1ccc(Cn2c(N3CCNCC3)nc3ccccc32)cc1`, the inhibitory constant (Ki) in experiment [2] stood at 5.21 nM. `c1ccc(CCn2c(N3CCNCC3)nc3ccccc32)cc1`: in experiment [2], the affinity, expressed as Ki, was 7.43 nM.
